Assay results as given in PMC8471451 (Pharmaceuticals, 2021).
Several values for one entry are separate records, joined by “and”; a condition that tells them apart may be missing. Equal values may be shown once.

Legend:
[1] = target: T1, human ACE2 protein (Homo sapiens, UniProt Q9BYF1); test: Biolayer interferometry (BLI) binding assay with human ACE2; conditions: His-tagged human ACE2 on Ni-NTA biosensor, 30 °C, 1:1 model
T1 construct: purchased Sino Biological

[2] = test system: HEK-293T-ACE2^h cells; test: Cytotoxicity by MTT assay; assay type: cell-based, human; conditions: for CC0 (maximum nontoxic concentration): 4 h incubation; for TC50 (concentration causing 50% host cells' death): 48 h treatment
Procedure: The cytotoxic effect of honokiol derivatives on HEK-293T-ACE2^h cells was evaluated by MTT assay. HEK-293T-ACE2^h cells were seed into 96-well plate at a density of 1×10^4 cells per well and then treated with various concentrations of compounds for either 4 or 48 h. Then 10 μL of 3-(4, 5-dimethylthiazol-2-yl)-2, 5-diphenyltetrazolium bromide (MTT) (5 mg/mL) solution was added to each well for another 4 h incubation. The supernatants were then removed, and the formed formazan crystals were dissolved in 100 μL DMSO and the plate was agitated for 10 min. Relative cell viability was assessed by measuring the absorbance at 570 nm by using a microplate reader (Infinite M200 PRO Microplate Reader, Tecan, Swiss). The survival rate of HEK-293T-ACE2^h cells was calculated using the following formula: [(ODtreated-ODblank) / (ODcontrol-ODblank)] × 100%. The 50% toxic concentration (TC50) for 48 h was calculated by the GraphPad Prism 8.0 software (La Jolla, CA, USA). The maximum nontoxic concentration (CC0) for 4 h was determined as the maximum tested concentration in which the cell viability was 100%. Data were obtained from three independent experiments.

[3] = test system: SARS-CoV-2 spike pseudovirus; test: microbe, parasite or virus in culture; assay type: cell-based; conditions: for IC50: Severe acute respiratory syndrome coronavirus 2, read-out: IC50 (inhibition of 50% viral entry into host cells)
[4] = target: T2, SARS-CoV-2 spike RBD binding with ACE2 protein (Homo sapiens, UniProt Q9BYF1); test: Competitive ELISA of spike RBD binding with ACE2; assay type: biochemical; conditions: read-out: Inhibitory rate of spike RBD-ACE2 binding
T2 construct: purchased Sino Biological
T2 sequence (Q9BYF1 18-740): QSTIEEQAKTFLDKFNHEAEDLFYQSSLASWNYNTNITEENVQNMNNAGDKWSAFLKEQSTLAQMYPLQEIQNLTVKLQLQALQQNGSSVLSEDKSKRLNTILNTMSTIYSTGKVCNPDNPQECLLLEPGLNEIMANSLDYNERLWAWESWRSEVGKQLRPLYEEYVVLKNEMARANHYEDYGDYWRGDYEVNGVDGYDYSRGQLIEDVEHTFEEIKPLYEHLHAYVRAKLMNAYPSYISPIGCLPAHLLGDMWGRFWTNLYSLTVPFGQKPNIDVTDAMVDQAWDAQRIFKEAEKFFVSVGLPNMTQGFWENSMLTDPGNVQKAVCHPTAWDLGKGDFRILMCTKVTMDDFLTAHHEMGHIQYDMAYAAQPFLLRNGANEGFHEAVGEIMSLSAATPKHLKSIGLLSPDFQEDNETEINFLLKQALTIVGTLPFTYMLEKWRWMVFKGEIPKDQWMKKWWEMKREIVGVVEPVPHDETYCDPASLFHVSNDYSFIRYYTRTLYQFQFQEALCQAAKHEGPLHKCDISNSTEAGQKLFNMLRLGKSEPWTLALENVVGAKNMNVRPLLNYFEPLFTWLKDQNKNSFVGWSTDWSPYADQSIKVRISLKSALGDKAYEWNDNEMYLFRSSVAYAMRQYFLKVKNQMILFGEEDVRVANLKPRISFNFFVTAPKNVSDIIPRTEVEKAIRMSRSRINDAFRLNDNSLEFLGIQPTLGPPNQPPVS

[5] = target: T3, SARS-CoV-2 spike RBD protein (Severe acute respiratory syndrome coronavirus 2, UniProt P0DTC2); assay type: binding
T3 construct: purchased Sino Biological

T1 sequence (Q9BYF1 18-805): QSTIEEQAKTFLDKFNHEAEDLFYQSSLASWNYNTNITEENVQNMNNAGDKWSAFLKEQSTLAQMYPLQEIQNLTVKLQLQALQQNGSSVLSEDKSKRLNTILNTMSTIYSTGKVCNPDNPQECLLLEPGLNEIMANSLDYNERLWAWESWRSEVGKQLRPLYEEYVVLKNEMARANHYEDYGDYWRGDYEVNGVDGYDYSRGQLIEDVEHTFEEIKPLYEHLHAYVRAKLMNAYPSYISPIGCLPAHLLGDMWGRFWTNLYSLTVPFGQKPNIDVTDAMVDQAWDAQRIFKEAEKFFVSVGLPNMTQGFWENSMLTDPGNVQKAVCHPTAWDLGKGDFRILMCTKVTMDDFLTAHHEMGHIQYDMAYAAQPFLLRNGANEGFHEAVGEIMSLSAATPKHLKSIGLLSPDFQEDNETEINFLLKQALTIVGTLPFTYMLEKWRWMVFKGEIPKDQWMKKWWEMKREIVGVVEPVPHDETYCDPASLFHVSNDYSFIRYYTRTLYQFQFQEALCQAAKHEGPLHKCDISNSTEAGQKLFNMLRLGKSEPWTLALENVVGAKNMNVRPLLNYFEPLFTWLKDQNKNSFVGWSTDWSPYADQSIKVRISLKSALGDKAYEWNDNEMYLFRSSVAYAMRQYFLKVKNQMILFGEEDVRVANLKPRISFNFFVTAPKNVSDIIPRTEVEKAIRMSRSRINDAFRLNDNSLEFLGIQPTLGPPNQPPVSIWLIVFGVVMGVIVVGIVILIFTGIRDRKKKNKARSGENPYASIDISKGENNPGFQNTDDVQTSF

C=CCc1cc(-c2cc(CC=C)c3oc(=O)n(Cc4nnc(-c5ccccc5)o4)c3c2)c2oc(=O)n(Cc3nnc(-c4ccccc4)o3)c2c1 [Compound 6a]
Kd [1]: 8.41 ± 0.43 µM | CC0 (maximum nontoxic concentration) [2]: >100 µM | TC50 (concentration causing 50% host cells' death) [2]: >100 µM | SI (selectivity index, TC50/IC50) [3]: >3.42 | IC50 [3]: 29.2 ± 0.71 µM

C=CCc1cc(-c2cc(CC=C)c3oc(=O)n(Cc4nnc(-c5ccccc5Cl)o4)c3c2)c2oc(=O)n(Cc3nnc(-c4ccccc4Cl)o3)c2c1 [Compound 6b]
CC0 (maximum nontoxic concentration) [2]: >100 µM | TC50 (concentration causing 50% host cells' death) [2]: >100 µM | IC50 [3]: > 100 µM

C=CCc1cc(-c2cc(CC=C)c3oc(=O)n(Cc4nnc(-c5cccc(Cl)c5)o4)c3c2)c2oc(=O)n(Cc3nnc(-c4cccc(Cl)c4)o3)c2c1 [Compound 6c]
CC0 (maximum nontoxic concentration) [2]: >100 µM | TC50 (concentration causing 50% host cells' death) [2]: >100 µM | IC50 [3]: > 100 µM

C=CCc1cc(-c2cc(CC=C)c3oc(=O)n(Cc4nnc(-c5ccc(Cl)cc5)o4)c3c2)c2oc(=O)n(Cc3nnc(-c4ccc(Cl)cc4)o3)c2c1 [Compound 6d]
CC0 (maximum nontoxic concentration) [2]: 50 µM | IC50 [3]: > 50 µM

C=CCc1cc(-c2cc(CC=C)c3oc(=O)n(Cc4nnc(-c5ccccc5Br)o4)c3c2)c2oc(=O)n(Cc3nnc(-c4ccccc4Br)o3)c2c1 [Compound 6e]
CC0 (maximum nontoxic concentration) [2]: >100 µM | TC50 (concentration causing 50% host cells' death) [2]: >100 µM | IC50 [3]: > 100 µM

C=CCc1cc(-c2cc(CC=C)c3oc(=O)n(Cc4nnc(-c5cccc(Br)c5)o4)c3c2)c2oc(=O)n(Cc3nnc(-c4cccc(Br)c4)o3)c2c1 [Compound 6f]
CC0 (maximum nontoxic concentration) [2]: 50 µM | IC50 [3]: > 50 µM

C=CCc1cc(-c2cc(CC=C)c3oc(=O)n(Cc4nnc(-c5ccc(Br)cc5)o4)c3c2)c2oc(=O)n(Cc3nnc(-c4ccc(Br)cc4)o3)c2c1 [Compound 6g]
CC0 (maximum nontoxic concentration) [2]: 50 µM | IC50 [3]: > 50 µM

C=CCc1cc(-c2cc(CC=C)c3oc(=O)n(Cc4nnc(-c5ccccc5F)o4)c3c2)c2oc(=O)n(Cc3nnc(-c4ccccc4F)o3)c2c1 [Compound 6h]
CC0 (maximum nontoxic concentration) [2]: >100 µM | SI (selectivity index, TC50/IC50) [3]: >1.62 | IC50 [3]: 61.6 ± 1.21 µM

C=CCc1cc(-c2cc(CC=C)c3oc(=O)n(Cc4nnc(-c5cccc(F)c5)o4)c3c2)c2oc(=O)n(Cc3nnc(-c4cccc(F)c4)o3)c2c1 [Compound 6i]
CC0 (maximum nontoxic concentration) [2]: >100 µM | TC50 (concentration causing 50% host cells' death) [2]: >100 µM | Antiviral entry activity (in words) [3]: complete loss of antiviral activities | IC50 [3]: > 100 µM

C=CCc1cc(-c2cc(CC=C)c3oc(=O)n(Cc4nnc(-c5ccc(F)cc5)o4)c3c2)c2oc(=O)n(Cc3nnc(-c4ccc(F)cc4)o3)c2c1 [Compound 6j]
CC0 (maximum nontoxic concentration) [2]: 50 µM | Antiviral entry activity (in words) [3]: complete loss of antiviral activities | IC50 [3]: > 50 µM

C=CCc1cc(-c2cc(CC=C)c3oc(=O)n(Cc4nnc(-c5ccccc5C)o4)c3c2)c2oc(=O)n(Cc3nnc(-c4ccccc4C)o3)c2c1 [Compound 6k]
CC0 (maximum nontoxic concentration) [2]: >100 µM | TC50 (concentration causing 50% host cells' death) [2]: >100 µM | IC50 [3]: > 100 µM

C=CCc1cc(-c2cc(CC=C)c3oc(=O)n(Cc4nnc(-c5cccc(C)c5)o4)c3c2)c2oc(=O)n(Cc3nnc(-c4cccc(C)c4)o3)c2c1 [Compound 6l]
CC0 (maximum nontoxic concentration) [2]: >100 µM | TC50 (concentration causing 50% host cells' death) [2]: >100 µM | IC50 [3]: > 100 µM

C=CCc1cc(-c2cc(CC=C)c3oc(=O)n(Cc4nnc(-c5ccc(C)cc5)o4)c3c2)c2oc(=O)n(Cc3nnc(-c4ccc(C)cc4)o3)c2c1 [Compound 6m]
CC0 (maximum nontoxic concentration) [2]: 50 µM | IC50 [3]: > 50 µM

C=CCc1cc(-c2cc(CC=C)c3oc(=O)n(Cc4nnc(-c5ccccc5OC)o4)c3c2)c2oc(=O)n(Cc3nnc(-c4ccccc4OC)o3)c2c1 [Compound 6n]
CC0 (maximum nontoxic concentration) [2]: 50 µM | IC50 [3]: > 50 µM

C=CCc1cc(-c2cc(CC=C)c3oc(=O)n(Cc4nnc(-c5cccc(OC)c5)o4)c3c2)c2oc(=O)n(Cc3nnc(-c4cccc(OC)c4)o3)c2c1 [Compound 6o]
CC0 (maximum nontoxic concentration) [2]: >100 µM | TC50 (concentration causing 50% host cells' death) [2]: >100 µM | IC50 [3]: > 100 µM

C=CCc1cc(-c2cc(CC=C)c3oc(=O)n(Cc4nnc(-c5ccc(OC)cc5)o4)c3c2)c2oc(=O)n(Cc3nnc(-c4ccc(OC)cc4)o3)c2c1 [Compound 6p]
inhibition at 12.5 µM ([4]; 12.5 µM): 26.1% | inhibition at 25 µM [4]: 37.2% | inhibition at 50 µM [4]: 50.4% | Kd [1]: 6.87 ± 0.29 µM | CC0 (maximum nontoxic concentration) [2]: >100 µM | TC50 (concentration causing 50% host cells' death) [2]: >100 µM | SI (selectivity index, TC50/IC50) [3]: >10.18 | IC50 [3]: 9.82 ± 1.16 µM | Interaction with spike RBD [5]: doesn’t show interaction

C=CCc1ccc(O)c(-c2ccc(O)c(CC=C)c2)c1 [honokiol, reference compound]
inhibition at 25 µM [4]: 13.8% | inhibition at 50 µM [4]: 20.9% | Kd [1]: 17 ± 3.4 µM | CC0 (maximum nontoxic concentration) [2]: 50 µM | TC50 (concentration causing 50% host cells' death) [2]: 48.23 µM and 48.23 ± 1.19 µM | IC50 [3]: > 50 µM
